Data as given in ChEMBL document CHEMBL1145843 (J Med Chem, 2003).
Calls of active or inactive are those of the source.

Experiments:
[1] = Inhibitory concentration of compound for inhibiting hematin polymerization; type: functional
[2] = Hematin binding affinity of compound was determined as a measure of inhibiting hematin polymerization
[3] = tested on: Plasmodium falciparum; assay: Growth inhibition against Plasmodium falciparum NF54; Not active <= 3000nM; type: functional, organism-based
[4] = tested on: Plasmodium falciparum; assay: Growth inhibition against Plasmodium falciparum K1; Not active <= 3000nM; type: functional, organism-based

Row | Structure (SMILES) | IC50 [1] [µM] | Ka [2] [M⁻¹] | NI [3] | NI [4]
1 | CCN(CC)CCCC(C)Cc1ccnc2cc(Cl)ccc12 (configuration not stated) | 1500 | 84000 | inactive | inactive
2 | CCN(CC)CCCC(C)Nc1cccc2cc(Cl)ccc12 (configuration not stated) | > 2500 |  | inactive | inactive
